{"source": "paper doi:10.1101/187716v3", "about": "(bioRxiv, 2017)", "system": "orthotopic 4T1 breast tumors", "assay": "PET-CT imaging of tumor accumulation in orthotopic 4T1 breast tumor mice", "format": "in vivo, Balb/c mice", "conditions": "scans at 10 min, 2, 6, 12, 24, 48 h"}
{"substance": "Cys-Tyr-Ahx-LinTT1 [LinTT1-Tyr-^124I-PS]", "values": [{"measurement": "time post injection at which tumor accumulation is seen by PET", "value": 2, "unit": "h"}]}
